Measurements from US20260070945A1, “MACROCYCLIC IMMUNOMODULATORS” (Bristol-Myers Squibb Company, priority 2022, published 2026).
*1 amine or outer side, *2 acyl side, *3 side chain or, on linkers, in order; H or OH if unused. Where a SMILES comes first, the peptide text is derived from it. Bridges are numbered along the chain shown (N, C = ends). [ ]: non-standard residue; d: D form. The star is where a group is joined. ξ: configuration not given here. Phe(4-CH2CH2COOH) = N[C@@H](Cc1ccc(CCC(=O)O)cc1)C(=O)O; Phe(3-CF3) = N[C@@H](Cc1cccc(C(F)(F)F)c1)C(=O)O; Phe(4-COOH) = N[C@@H](Cc1ccc(C(=O)O)cc1)C(=O)O; Bip = N[C@@H](Cc1ccc(-c2ccccc2)cc1)C(=O)O; Phe(3-Me) = Cc1cccc(C[C@H](N)C(=O)O)c1; γGlu = O=C(O)[C@H](CCC(=O)[*:2])N[*:1]; NH(CH2)12COOH = O=C(O)CCCCCCCCCCCCN*; NMeAEEA = CN(CCOCCOCC(=O)[*:2])[*:1]; Val(3-OH) = CC(C)(O)[C@H](N)C(=O)O; aIle = CC[C@@H](C)[C@H](N)C(=O)O; hhGln = NC(=O)CCCC[C@H](N)C(=O)O; 3Pal = N[C@@H](Cc1cccnc1)C(=O)O; 4Pal = N[C@@H](Cc1ccncc1)C(=O)O; X1 = O=C(CN1CCN([*:1])CC1)[*:2]; Cha = N[C@@H](CC1CCCCC1)C(=O)O; Cit = NC(=O)NCCC[C@H](N)C(=O)O; Ile(3ξ) = CCC(C)[C@H](N)C(=O)O; Thr(3ξ) = CC(O)[C@H](N)C(=O)O; 12Ado = NCCCCCCCCCCCC(=O)O; Carboxymethyl = O=C(O)C*; NMeA = CN[C@@H](C)C(=O)O; Orn = NCCC[C@H](N)C(=O)O; Aun = NCCCCCCCCCCC(=O)O; Dab = NCC[C@H](N)C(=O)O; Dap = NC[C@H](N)C(=O)O; AEEA = NCCOCCOCC(=O)O

target: T1, PD-1/PD-L1 interaction (PE-labeled human PD-L1-Ig binding to Jurkat cell line over-expressing human PD-1) (Homo sapiens, UniProt Q15116); experiment: Jurkat-PD-1 Cell Binding High-Content Screening Assay (CBA); conditions: Jurkat-hPD-1 cells, PE-labeled PD-L1-Ig 20 nM final; read-out: Jurkat HPD1 PDL1 IC50
T1 construct: expressed in transfected cells; host or cells: Jurkat
How it was run: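 Binding of 20 nM (final) PE-tagged PD-L1-Ig to compound-pretreated Jurkat-hPD-1 cells was measured by high-content imaging after 1 h. Pretreatment ran 2 h at 37 °C in DMEM with 10% fetal calf serum.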

T1 sequence (Q15116 25-288): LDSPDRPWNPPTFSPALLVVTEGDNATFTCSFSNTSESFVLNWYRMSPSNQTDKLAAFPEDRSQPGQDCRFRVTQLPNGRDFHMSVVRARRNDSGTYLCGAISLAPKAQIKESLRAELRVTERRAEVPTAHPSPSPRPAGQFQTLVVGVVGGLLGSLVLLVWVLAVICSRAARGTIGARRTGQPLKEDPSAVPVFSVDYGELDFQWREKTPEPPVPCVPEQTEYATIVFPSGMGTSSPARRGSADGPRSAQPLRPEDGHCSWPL

Compared with Cc1cccc(C[C@@H]2NC(=O)[C@H](CC(=O)O)NC(=O)[C@H](Cc3ccc(OCC(=O)O)cc3)NC(=O)[C@H](CN)NC(=O)CSC[C@@H](C(=O)N[C@@H](CCN)C(=O)NCCOCCOCC(=O)NCCCCCCCCCCC(=O)O)NC(=O)[C@H](CCC(=O)O)NC(=O)[C@H](C(C)(C)O)NC(=O)[C@H](CC3CCCCC3)NC(=O)[C@H](CCN)NC(=O)[C@@H](CC(C)C)NC(=O)[C@H](C)N(C)C(=O)[C@H](Cc3ccc(OCC(=O)O)cc3)NC(=O)[C@H](Cc3ccc(-c4ccccc4)cc3)NC(=O)[C@H](Cc3ccc(OCC(=O)O)cc3)NC2=O)c1 [Example 1426] ({CH2CO}-[Dap]Y(Carboxymethyl)D[Phe(3-Me)]Y(Carboxymethyl)[Bip]Y(Carboxymethyl)[NMeA][dL][Dab][Cha][Val(3-OH)]EC[Dab][AEEA][Aun]-OH; thioether N-14), Cc1cccc(C[C@@H]2NC(=O)[C@H](CC(=O)O)NC(=O)[C@H](Cc3ccc(OCC(=O)O)cc3)NC(=O)[C@H](CN)NC(=O)CSC[C@@H](C(=O)N[C@@H](CCN)C(=O)NCCCCCCCCCCC(=O)O)NC(=O)[C@H](CCCN)NC(=O)[C@H](C(C)C)NC(=O)[C@H](CC3CCCCC3)NC(=O)[C@H](CCN)NC(=O)[C@@H](CC(C)C)NC(=O)[C@H](C)N(C)C(=O)[C@H](Cc3ccc(O)cc3)NC(=O)[C@H](Cc3ccc(-c4ccccc4)cc3)NC(=O)[C@H](Cc3ccc(O)cc3)NC2=O)c1 [Example 1313] ({CH2CO}-[Dap]Y(Carboxymethyl)D[Phe(3-Me)]Y[Bip]Y[NMeA][dL][Dab][Cha]V[Orn]C[Dab][Aun]-OH; thioether N-14) is 1.6-fold higher in IC50: 18.1 nM for the first, 28.2 nM for the second. The first is the more potent here.

Going from COC[C@@H]1NC(=O)CSC[C@@H](C(=O)N[C@@H](CCN)C(=O)NCCOCCOCC(=O)N[C@@H](CCC(=O)NCCOCCOCC(=O)NCCCCCCCCCCCCC(=O)O)C(=O)O)NC(=O)[C@H](CCC(=O)O)NC(=O)[C@H](C(C)C)NC(=O)[C@H](CC2CCCCC2)NC(=O)[C@H](CCN)NC(=O)[C@@H](CC(C)C)NC(=O)[C@H](C)N(C)C(=O)[C@H](Cc2ccc(C(=O)O)cc2)NC(=O)[C@H](Cc2ccc(-c3ccccc3)cc2)NC(=O)[C@H](Cc2ccc(C(=O)O)cc2)NC(=O)[C@H](Cc2cccc(C(F)(F)F)c2)NC(=O)[C@H](CC(=O)O)NC(=O)[C@H](Cc2ccc(OCC(=O)O)cc2)NC1=O [Example 1169] ({CH2CO}-S(Me)Y(Carboxymethyl)D[Phe(3-CF3)][Phe(4-COOH)][Bip][Phe(4-COOH)][NMeA][dL][Dab][Cha]VEC[Dab][AEEA][γGlu][AEEA]-{NH(CH2)12COOH}; thioether N-14) to CC(C)C[C@@H]1NC(=O)[C@H](Cc2c[nH]c3ccccc23)NC(=O)[C@H](CC(=O)O)NC(=O)[C@H](Cc2ccc(C(=O)O)cc2)NC(=O)[C@H](Cc2ccc(OCC(=O)O)cc2)NC(=O)CSC[C@@H](C(=O)N[C@@H](CCCN)C(=O)NCCOCCOCC(=O)NCCCCCCCCCCC(=O)O)NC(=O)[C@H](CCCCC(N)=O)NC(=O)[C@H](C(C)C)NC(=O)[C@H](CC2CCCCC2)NC(=O)[C@H](CCN)NC(=O)[C@@H](CC(C)C)NC(=O)[C@H](C)N(C)C(=O)[C@H](C(C)C)NC(=O)[C@H](Cc2ccc(-c3ccccc3)cc2)NC1=O [Example 2128] ({CH2CO}-Y(Carboxymethyl)[Phe(4-COOH)]DWL[Bip]V[NMeA][dL][Dab][Cha]V[hhGln]C[Orn][AEEA][Aun]-OH; thioether N-14), the IC50 falls from 60.6 nM to 8.9 nM (6.8-fold). The second is the more potent here.

Compared with CC(C)C[C@@H]1NC(=O)[C@H](Cc2c[nH]c3ccccc23)NC(=O)[C@H](CC(=O)O)NC(=O)[C@H](Cc2ccc(OCC(=O)O)cc2)NC(=O)[C@H](Cc2ccccc2)NC(=O)CSC[C@@H](C(=O)N[C@@H](CCCCN)C(=O)NCCCCCCCCCCC(=O)O)NC(=O)[C@H](CN)NC(=O)[C@H](C(C)C)NC(=O)[C@H](CC(C)C)NC(=O)[C@H](CC(N)=O)NC(=O)[C@@H](CC(C)C)NC(=O)[C@H](C)N(C)C(=O)[C@H](C(C)C)NC(=O)[C@H](Cc2ccc(-c3ccccc3)cc2)NC1=O [Example 1350] ({CH2CO}-FY(Carboxymethyl)DWL[Bip]V[NMeA][dL]NLV[Dap]CK[Aun]-OH; thioether N-14), CCC(C)[C@@H]1NC(=O)[C@H](Cc2ccc(-c3ccccc3)cc2)NC(=O)[C@H](C(C)C)NC(=O)[C@H](Cc2c[nH]c3ccccc23)NC(=O)[C@H](CC(=O)O)NC(=O)[C@H](Cc2ccc(OCC(=O)O)cc2)NC(=O)[C@H](Cc2cccnc2)NC(=O)CSC[C@@H](C(=O)N[C@H](CC(N)=O)C(=O)NCCOCCOCC(=O)N[C@@H](CCC(=O)N[C@@H](CCCN)C(=O)NCCCCCCCCCCC(=O)O)C(=O)O)NC(=O)[C@H](CO)NC(=O)[C@H](C(C)C)NC(=O)[C@H](CC(C)C)NC(=O)[C@H](CCN)NC(=O)[C@@H](CC(C)C)NC(=O)[C@H](C)N(C)C1=O (stereo partly drawn) [Example 2060] ({CH2CO}-[3Pal]Y(Carboxymethyl)DWV[Bip][Ile(3ξ)][NMeA][dL][Dab]LVSC[dN][AEEA][γGlu][Orn][Aun]-OH; thioether N-14) is 1.5-fold lower in IC50: 119 nM for the first, 78 nM for the second.

Going from CC(C)C[C@H]1NC(=O)[C@H](C)N(C)C(=O)[C@H](C(C)C)NC(=O)[C@H](Cc2ccc(-c3ccccc3)cc2)NC(=O)[C@H](C(C)C)NC(=O)[C@H](Cc2c[nH]c3ccccc23)NC(=O)[C@H](CC(=O)O)NC(=O)[C@H](Cc2ccc(OCC(=O)O)cc2)NC(=O)[C@H](CCCNC(=N)N)NC(=O)CSC[C@@H](C(=O)NCC(=O)NCCOCCOCC(=O)N[C@@H](CCCN)C(=O)NCCCCCCCCCCCC(=O)O)NC(=O)[C@H](CCCN)NC(=O)[C@H](C(C)C)NC(=O)[C@H](CC2CCCCC2)NC(=O)[C@H](CCN)NC1=O [Example 2160] ({CH2CO}-RY(Carboxymethyl)DWV[Bip]V[NMeA][dL][Dab][Cha]V[Orn]CG[AEEA][Orn][12Ado]-OH; thioether N-14) to Cc1cccc(C[C@@H]2NC(=O)[C@H](CC(=O)O)NC(=O)[C@H](Cc3ccc(OCC(=O)O)cc3)NC(=O)[C@H](CCCNC(=N)N)NC(=O)CSC[C@@H](C(=O)N(C)CCOCCOCC(=O)NCCCCCCCCCCC(=O)O)NC(=O)[C@H](C(C)C)NC(=O)[C@H](C(C)C)NC(=O)[C@H](CC3CCCCC3)NC(=O)[C@H](CCN)NC(=O)[C@@H](CC(C)C)NC(=O)[C@H](C)N(C)C(=O)[C@H](CCCNC(N)=O)NC(=O)[C@H](Cc3ccc(-c4ccccc4)cc3)NC(=O)[C@H](C(C)C)NC2=O)c1 [Example 2356] ({CH2CO}-RY(Carboxymethyl)D[Phe(3-Me)]V[Bip][Cit][NMeA][dL][Dab][Cha]VVC[NMeAEEA][Aun]-OH; thioether N-14), the IC50 rises from 12.2 nM to 34.7 nM (2.8-fold). The first is the more potent here.

First: CC(C)C[C@@H]1NC(=O)[C@H](Cc2c[nH]c3ccccc23)NC(=O)[C@H](CC(=O)O)NC(=O)[C@H](Cc2ccncc2)NC(=O)[C@H](Cc2ccc(OCC(=O)O)cc2)NC(=O)CSC[C@@H](C(=O)N2CCN(CC(=O)NCCCCCCCCCCC(=O)O)CC2)NC(=O)[C@H](C(C)O)NC(=O)[C@H](C(C)C)NC(=O)[C@H](CC2CCCCC2)NC(=O)[C@H](CCN)NC(=O)[C@@H](CC(C)C)NC(=O)[C@H](C)N(C)C(=O)[C@H](C(C)C)NC(=O)[C@H](Cc2ccc(-c3ccccc3)cc2)NC1=O (stereo partly drawn) [Example 1219] ({CH2CO}-Y(Carboxymethyl)[4Pal]DWL[Bip]V[NMeA][dL][Dab][Cha]V[Thr(3ξ)]C[X1][Aun]-OH; thioether N-14)
Second: CC(C)C[C@@H]1NC(=O)[C@H](Cc2c[nH]c3ccccc23)NC(=O)[C@H](CC(=O)O)NC(=O)[C@H](Cc2ccc(C(=O)O)cc2)NC(=O)[C@H](Cc2ccc(OCC(=O)O)cc2)NC(=O)CSC[C@@H](C(=O)NCCOCCOCC(=O)NCCCCCCCCCCC(=O)O)NC(=O)[C@H](CO)NC(=O)[C@H](C(C)C)NC(=O)[C@H](CC2CCCCC2)NC(=O)[C@H](CCN)NC(=O)[C@@H](CC(C)C)NC(=O)[C@H](C)N(C)C(=O)[C@H](Cc2ccc(O)cc2)NC(=O)[C@H](Cc2ccc(-c3ccccc3)cc2)NC1=O [Example 2228] ({CH2CO}-Y(Carboxymethyl)[Phe(4-COOH)]DWL[Bip]Y[NMeA][dL][Dab][Cha]VSC[AEEA][Aun]-OH; thioether N-14)
The IC50 of the first is 3.9-fold higher: 202 nM for the first, 52 nM for the second.

CC[C@@H](C)[C@@H]1NC(=O)[C@H](Cc2ccc(-c3ccccc3)cc2)NC(=O)[C@H](C(C)C)NC(=O)[C@H](Cc2c[nH]c3ccccc23)NC(=O)[C@H](CC(=O)O)NC(=O)[C@H](Cc2ccc(OCC(=O)O)cc2)NC(=O)[C@H](Cc2ccncc2)NC(=O)CSC[C@@H](C(=O)N[C@H](CC(N)=O)C(=O)NCCOCCOCC(=O)N[C@@H](CCC(=O)NCCOCCOCC(=O)N[C@@H](CCC(=O)NCCOCCOCC(=O)N[C@@H](CCCN)C(=O)NCCCCCCCCCCC(=O)O)C(=O)O)C(=O)O)NC(=O)[C@H](CO)NC(=O)[C@H](C(C)C)NC(=O)[C@H](CC2CCCCC2)NC(=O)[C@H](CC(N)=O)NC(=O)[C@@H](CC(C)C)NC(=O)[C@H](C)N(C)C1=O [Example 2017] ({CH2CO}-[4Pal]Y(Carboxymethyl)DWV[Bip][aIle][NMeA][dL]N[Cha]VSC[dN][AEEA][γGlu][AEEA][γGlu][AEEA][Orn][Aun]-OH; thioether N-14) and Cc1cccc(C[C@@H]2NC(=O)[C@H](CC(=O)O)NC(=O)[C@H](Cc3ccc(CCC(=O)O)cc3)NC(=O)[C@H](CCCNC(=N)N)NC(=O)CSC[C@@H](C(=O)N[C@@H](CCN)C(=O)NCCCCCCCCCCC(=O)O)NC(=O)[C@@H](CO)NC(=O)[C@H](C(C)C)NC(=O)[C@H](CC3CCCCC3)NC(=O)[C@H](CCN)NC(=O)[C@@H](CC(C)C)NC(=O)[C@H](C)N(C)C(=O)[C@H](Cc3ccc(O)cc3)NC(=O)[C@H](Cc3ccc(-c4ccccc4)cc3)NC(=O)[C@H](C(C)C)NC2=O)c1 [Example 1267] ({CH2CO}-R[Phe(4-CH2CH2COOH)]D[Phe(3-Me)]V[Bip]Y[NMeA][dL][Dab][Cha]V[dS]C[Dab][Aun]-OH; thioether N-14) are within 1.5-fold of each other in IC50: 24.3 nM for the first, 22.8 nM for the second.
